# Test results published in US8114900B2, “Amorphous carvedilol dihydrogen phosphate” (Teva Pharmaceutical Industries Ltd., priority 2006, dated 2012).
# Like-named read-outs stand apart in the source and are kept apart here.
# Assays:
# [1] = Solubility of solid forms at pH=7 and 25° C.; format: physicochemical
# Method: The amorphous form (1:1) of the present invention has higher solubility with compared to Form I at pH=7 and 25° C.: […]
# [2] = % crystallinity calculation using the WinXRD 2.0 program; format: physicochemical; conditions: from XRD
# Source text: 2.0 program (FIGS. 46, 48, 39, 40, 43, 53, 50, 41).
# [3] = Stability upon heating under extreme heat conditions (oven); format: physicochemical; conditions: 80° C. for 30 min in oven
# [4] = cited from earlier work
# [5] = Particle size dimensions from microscope images; format: physicochemical
# Source text: It has the advantage of being able to reduce the particle size to a range of smaller dimensions (according to the requirements of the formulator who prepare the capsule or tablet), while when starting in advance with a smaller size of powder (Form I) limits this option. In addition, small particles, reduce flowability.
smiles,measurement,setting,value
"COc1ccccc1OCCNCC(O)COc1cccc2[nH]c3ccccc3c12.O=P(O)(O)O (centres unmarked) [Amorphous, carvedilol dihydrogen phosphate]",solubility,[1],14.9 µg/mL
"COc1ccccc1OCCNCC(O)COc1cccc2[nH]c3ccccc3c12.O=P(O)(O)O (centres unmarked) [Form R, carvedilol dihydrogen phosphate]",% crystallinity,[2]; listed as R,about 86%
same,stability upon heating (solid form),[3]; listed as R,stable upon heating
"COc1ccccc1OCCNCC(O)COc1cccc2[nH]c3ccccc3c12 (racemic) [carvedilol, (±)-1-(Carbazol-4-yloxy)-3-[[2-(o-methoxyphenoxy)ethyl]amino]-2-propanol]",solubility,[4]; in alkaline media,< 1 µg/mL
same,solubility,"[4]; increases with decreasing pH, upper value",up to 100 μg/mL
"COc1ccccc1OCCNCC(O)COc1cccc2[nH]c3ccccc3c12.O=P(O)(O)O (centres unmarked) [Form N, carvedilol dihydrogen phosphate]",particle size dimensions,[5]; listed as N,200-400 μm
same,% crystallinity,[2]; listed as N,about 86%
"COc1ccccc1OCCNCC(O)COc1cccc2[nH]c3ccccc3c12.O=P(O)(O)O (centres unmarked) [Form Y, carvedilol dihydrogen phosphate]",particle size dimensions,[5]; listed as Y,20-100 μm
"COc1ccccc1OCCNCC(O)COc1cccc2[nH]c3ccccc3c12.O=P(O)(O)O (centres unmarked) [Form L1, carvedilol dihydrogen phosphate]",% crystallinity,[2]; listed as L1,about 85%
same,stability upon heating (solid form),[3]; listed as L1,stable upon heating
"COc1ccccc1OCCNCC(O)COc1cccc2[nH]c3ccccc3c12.O=P(O)(O)O (centres unmarked) [Form F1, carvedilol dihydrogen phosphate]",particle size dimensions,[5]; listed as F1,50-150 μm
same,% crystallinity,[2]; listed as F1,about 86%
same,stability upon heating (solid form),[3]; listed as F1,stable upon heating
"COc1ccccc1OCCNCC(O)COc1cccc2[nH]c3ccccc3c12.O=P(O)(O)O (centres unmarked) [Form IV, reference compound]",stability upon heating (solid form),[3],transforms to amorphous form
"COc1ccccc1OCCNCC(O)COc1cccc2[nH]c3ccccc3c12.O=P(O)(O)O (centres unmarked) [Form P, carvedilol dihydrogen phosphate]",% crystallinity,[2]; listed as P,about 85%
"COc1ccccc1OCCNCC(O)COc1cccc2[nH]c3ccccc3c12.O=P(O)(O)O (centres unmarked) [Form L, carvedilol dihydrogen phosphate]",% crystallinity,[2]; listed as L,about 88%
same,stability upon heating (solid form),[3]; listed as L,stable upon heating
"COc1ccccc1OCCNCC(O)COc1cccc2[nH]c3ccccc3c12.O=P(O)(O)O (centres unmarked) [Form I, carvedilol dihydrogen phosphate]",particle size dimensions,[5]; listed as I,less than 20 μm
same,solubility,[1]; listed as I (′027),9.6 µg/mL
same,% crystallinity,[2]; listed as I,about 68%
"COc1ccccc1OCCNCC(O)COc1cccc2[nH]c3ccccc3c12.O=P(O)(O)O (centres unmarked) [Form F, carvedilol dihydrogen phosphate]",particle size dimensions,[5]; listed as F,50-200 μm
same,% crystallinity,[2]; listed as F,about 87%
same,stability upon heating (solid form),[3]; listed as F,stable upon heating
